Test results published in patent publication US10336702B2, “Pharmaceutically active compounds” (BERGENBIO ASA, priority 2015, dated 2019).

Key:
Akt1 = biological target: T1, Akt1 (Homo sapiens, UniProt P31749); experiment: Akt activation assay (PDK1-mediated activation, LANCE Ultra crosstide TR-FRET), Akt1; assay type: biochemical; conditions: read-out: Biological Assay 1 IC50 (nM) Akt1
T1 construct: unspecified tag, removed (detagged) (cleaved yes); purchased SignalChem and Proteros (Akt1); Merck Millipore (PDK1) 14-452 (PDK1); none given for Akt1
Outline: (§1)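 Human Akt1, Akt2 or Akt3 (SignalChem: 5, 15, 3 nM; Proteros: 5 nM each) was preincubated with compound, then activated by 5 nM PDK1 on PtdIns(3,4,5)P3/DOPS/DOPC vesicles with 100 µM ATP and 100 nM ULight-crosstide (HEPES pH 7.5, 1% DMSO) for 30 min. Product was detected by Eu-anti-phospho-crosstide TR-FRET (665/615 nm), with IC50 from a 4-parameter fit.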

Akt2 = biological target: T2, Akt2 (Homo sapiens, UniProt P31751); experiment: Akt activation assay (PDK1-mediated activation, LANCE Ultra crosstide TR-FRET), Akt2; assay type: biochemical; conditions: read-out: Biological Assay 1 IC50 (nM) Akt2
T2 construct: unspecified tag, removed (detagged) (cleaved yes); purchased SignalChem and Proteros (Akt2); Merck Millipore (PDK1) 14-452 (PDK1); none given for Akt2
Outline: as §1

p-Akt1 in LNCaP cells = biological target: T3, p-Akt1 in LNCaP cells (Homo sapiens, UniProt P31749); experiment: Phospho-Akt cellular SureFire assay, p-Akt1 in LNCaP cells; assay type: cell-based; conditions: read-out: Biological Assay 2 IC50 (nM) Akt1 LNCaP
T3 construct: SureFire assays to detect cellular p-Akt1, p-Akt2 and p-Akt3 levels in WM115 cells (Akt2/3) and LNCaP cells (Akt1); endogenous in cells; host or cells: LNCaP (ECACC 89110211)
Outline: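 LNCaP cells, 5×10^4/well, seeded overnight, switched to 0.1% FBS medium without insulin stimulation, then compound for 15 min at 37 °C (0.3% DMSO). Lysate p-Akt1 (pThr308) by AlphaScreen SureFire, two 2 h incubations at room temperature; IC50 by 4-parameter fit.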

p-Akt2 in WM115 cells = biological target: T4, p-Akt2 in WM115 cells (Homo sapiens, UniProt P31751); experiment: Phospho-Akt cellular SureFire assay, p-Akt2 in WM115 cells; assay type: cell-based; conditions: insulin stimulated, read-out: Biological Assay 2 IC50 (nM) Akt2 WM115
T4 construct: SureFire assays to detect cellular p-Akt1, p-Akt2 and p-Akt3 levels in WM115 cells (Akt2/3) and LNCaP cells (Akt1); endogenous in cells; host or cells: WM115 (ECACC 91061232), insulin-stimulated
Outline: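 WM115 cells in 0.1% FBS medium stimulated 10 min with 100 nM insulin, then exposed to compound for 15 min at 37° C (0.3% DMSO final). Lysates assayed by AlphaScreen with anti-(pThr308)Akt and isoform-specific total Akt2 antibodies; IC50 from 4-parameter fit.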

p-Akt3 in WM115 cells = biological target: T5, p-Akt3 in WM115 cells (Homo sapiens, UniProt Q9Y243); experiment: Phospho-Akt cellular SureFire assay, p-Akt3 in WM115 cells; assay type: cell-based; conditions: insulin stimulated, read-out: Biological Assay 2 IC50 (nM) Akt3 WM115
T5 construct: SureFire assays to detect cellular p-Akt1, p-Akt2 and p-Akt3 levels in WM115 cells (Akt2/3) and LNCaP cells (Akt1); endogenous in cells; host or cells: WM115 (ECACC 91061232), insulin-stimulated
Outline: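 WM115 cells were serum-reduced to 0.1% FBS, stimulated with 100 nM insulin for 10 min, then exposed to compound (0.3% DMSO) for 15 min at 37 °C. Lysates were assayed for Thr308-phosphorylated Akt3 by AlphaScreen SureFire using an isoform-specific total Akt3 capture antibody. IC50 was derived from a 4-parameter fit.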

Akt3 = biological target: T6, Akt3 (Homo sapiens, UniProt Q9Y243); experiment: Akt activation assay (PDK1-mediated activation, LANCE Ultra crosstide TR-FRET), Akt3; assay type: biochemical; conditions: read-out: Biological Assay 1 IC50 (nM) Akt3
T6 construct: unspecified tag, removed (detagged) (cleaved yes); purchased SignalChem and Proteros (Akt3); Merck Millipore (PDK1) 14-452 (PDK1); none given for Akt3
Outline: as §1

T6 sequence (Q9Y243 whole entry): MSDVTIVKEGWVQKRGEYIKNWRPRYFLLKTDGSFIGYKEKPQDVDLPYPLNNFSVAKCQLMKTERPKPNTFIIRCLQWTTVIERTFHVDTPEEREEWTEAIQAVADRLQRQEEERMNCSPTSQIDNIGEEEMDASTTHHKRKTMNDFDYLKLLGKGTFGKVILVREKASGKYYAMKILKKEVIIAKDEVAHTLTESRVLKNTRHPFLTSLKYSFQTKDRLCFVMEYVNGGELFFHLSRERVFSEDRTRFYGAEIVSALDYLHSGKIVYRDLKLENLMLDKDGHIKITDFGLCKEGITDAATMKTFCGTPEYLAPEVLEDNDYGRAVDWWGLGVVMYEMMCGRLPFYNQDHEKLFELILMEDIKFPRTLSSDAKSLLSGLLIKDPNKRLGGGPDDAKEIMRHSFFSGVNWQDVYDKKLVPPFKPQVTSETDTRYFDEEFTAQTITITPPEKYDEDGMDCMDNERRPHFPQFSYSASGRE
T5 sequence (Q9Y243 whole entry): as above
T1 sequence (P31749 whole entry): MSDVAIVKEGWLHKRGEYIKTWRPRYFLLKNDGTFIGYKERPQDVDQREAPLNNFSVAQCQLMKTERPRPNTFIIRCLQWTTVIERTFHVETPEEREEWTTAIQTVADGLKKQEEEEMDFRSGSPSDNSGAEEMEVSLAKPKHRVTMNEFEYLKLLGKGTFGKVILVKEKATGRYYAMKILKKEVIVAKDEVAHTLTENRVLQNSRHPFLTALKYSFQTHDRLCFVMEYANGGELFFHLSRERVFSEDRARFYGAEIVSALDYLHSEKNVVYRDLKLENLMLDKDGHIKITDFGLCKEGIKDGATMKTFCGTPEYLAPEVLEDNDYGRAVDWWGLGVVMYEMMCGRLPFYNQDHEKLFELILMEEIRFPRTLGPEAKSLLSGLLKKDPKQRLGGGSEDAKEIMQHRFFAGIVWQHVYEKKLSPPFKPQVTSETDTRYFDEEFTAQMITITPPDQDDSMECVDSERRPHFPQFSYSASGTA
T3 sequence (P31749 whole entry): as above
T4 sequence (P31751 whole entry): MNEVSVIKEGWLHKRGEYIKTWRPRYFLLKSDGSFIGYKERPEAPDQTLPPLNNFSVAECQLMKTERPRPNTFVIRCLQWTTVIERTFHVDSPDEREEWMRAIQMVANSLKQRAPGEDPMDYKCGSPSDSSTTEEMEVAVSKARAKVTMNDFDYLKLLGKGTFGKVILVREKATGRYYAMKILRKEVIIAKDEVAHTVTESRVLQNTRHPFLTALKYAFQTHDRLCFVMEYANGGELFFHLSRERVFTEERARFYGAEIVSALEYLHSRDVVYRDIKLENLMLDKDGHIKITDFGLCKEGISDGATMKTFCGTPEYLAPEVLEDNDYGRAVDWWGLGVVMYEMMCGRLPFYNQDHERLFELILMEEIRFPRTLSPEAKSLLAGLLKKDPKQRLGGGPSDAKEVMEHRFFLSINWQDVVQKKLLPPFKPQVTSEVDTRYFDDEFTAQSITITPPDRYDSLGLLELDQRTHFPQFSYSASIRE
T2 sequence (P31751 whole entry): as above

Q: Which results are given for CN(C(=O)C1CC1)[C@H]1CC[C@H](CC(=O)Nc2cnc(-c3ccc(C(C)(C)N)c(F)c3)c(-c3ccccc3)c2)CC1 [Example 53, N-(trans-4-(2-((6-(4-(2-aminopropan-2-yl)-3-fluorophenyl)-5-phenylpyridin-3-yl)amino)-2-oxoethyl)cyclohexyl)-N-methylcyclopropanecarboxamide]?
A: IC50 (Akt1): > 30000 nM; IC50 (Akt2): > 30000 nM; IC50 (p-Akt1 in LNCaP cells): > 30000 nM; IC50 (p-Akt2 in WM115 cells): 18000 nM; IC50 (p-Akt3 in WM115 cells): 680 nM; IC50 (Akt3): 4100 nM

Q: Which IC50 (Akt1) does the source give for CN(C)C(=O)[C@H]1CC[C@H](CC(=O)Nc2cnc(-c3ccc(C(C)(C)N)cc3)c(-c3ccccc3)c2)CC1 [Example 55, trans-4-(2-((6-(4-(2-aminopropan-2-yl)phenyl)-5-phenylpyridin-3-yl)amino)-2-oxoethyl)-N,N-dimethylcyclohexanecarboxamide] here?
A: The IC50 was over 30000 nM.

Q: And the IC50 (Akt2)?
A: The IC50 was 3300 nM.

Q: What about the IC50 (p-Akt1 in LNCaP cells) of the same compound?
A: Its IC50 is over 30000 nM.

Q: And the IC50 (p-Akt2 in WM115 cells)?
A: Its IC50 is 3800 nM.

Q: What about the IC50 (p-Akt3 in WM115 cells) of the same compound?
A: The IC50 was 160 nM.

Q: What about the IC50 (Akt3) of the same compound?
A: Its IC50 is 1600 nM.

Q: COC(=O)N(C)[C@H]1CC[C@H](CC(=O)Nc2cc(-c3ccccc3)c(-c3ccc(C(C)(C)N)cc3)nn2)CC1 [Example 56, Methyl (trans-4-(2-((6-(4-(2-aminopropan-2-yl)phenyl)-5-phenylpyridazin-3-yl)amino)-2-oxoethyl)cyclohexyl)(methyl)carbamate] was tested. Which IC50 (Akt1) did it give?
A: Its IC50 is over 30000 nM.

Q: And the IC50 (Akt2)?
A: Its IC50 is 10000 nM.

Q: And the IC50 (p-Akt1 in LNCaP cells)?
A: The IC50 was over 30000 nM.

Q: And the IC50 (p-Akt2 in WM115 cells)?
A: Its IC50 is over 30000 nM.

Q: And the IC50 (p-Akt3 in WM115 cells)?
A: Its IC50 is 330 nM.

Q: What about the IC50 (Akt3) of the same compound?
A: Its IC50 is 100 nM.

Q: What does the source list for CC(=O)N(C)[C@H]1CC[C@H](CC(=O)Nc2cc(-c3ccccc3)c(-c3ccc([C@]4(N)C[C@](C)(O)C4)cc3)nn2)CC1 [Example 57, N-(6-(4-(trans-1-amino-3-hydroxy-3-methylcyclobutyl)phenyl)-5-phenylpyridazin-3-yl)-2-(trans-4-(N-methylacetamido)cyclohexyl)acetamide]?
A: IC50 (Akt1): 1600 nM; IC50 (Akt2): 190 nM; IC50 (p-Akt1 in LNCaP cells): 5300 nM; IC50 (p-Akt2 in WM115 cells): 600 nM; IC50 (p-Akt3 in WM115 cells): 8 nM; IC50 (Akt3): 7 nM

Q: How did the IC50 (Akt1) turn out when C[C@]1(O)C[C@@](N)(c2ccc(-c3nnc(NC(=O)C[C@H]4CC[C@H](N5CCOC5=O)CC4)cc3-c3ccccc3)cc2)C1 [Example 58, N-(6-(4-(trans-1-amino-3-hydroxy-3-methylcyclobutyl)phenyl)-5-phenylpyridazin-3-yl)-2-(trans-4-(2-oxooxazolidin-3-yl)cyclohexyl)acetamide] was run?
A: Its IC50 is 1300 nM.

Q: What about the IC50 (Akt2) of the same compound?
A: Its IC50 is 98 nM.

Q: And the IC50 (p-Akt1 in LNCaP cells)?
A: The IC50 was 4000 nM.

Q: What about the IC50 (p-Akt2 in WM115 cells) of the same compound?
A: Its IC50 is 750 nM.

Q: And the IC50 (p-Akt3 in WM115 cells)?
A: The IC50 was 8 nM.

Q: And the IC50 (Akt3)?
A: The IC50 was 3 nM.

Q: Which IC50 (Akt1) does the source give for COC(=O)N(C)[C@H]1CC[C@H](CC(=O)Nc2cc(-c3ccccc3)c(-c3ccc([C@]4(N)C[C@](C)(O)C4)cc3)nn2)CC1 [Example 59, Methyl (trans-4-(2-((6-(4-(trans-1-amino-3-hydroxy-3-methylcyclobutyl)phenyl)-5-phenylpyridazin-3-yl)amino)-2-oxoethyl)cyclohexyl)(methyl)carbamate] here?
A: Its IC50 is 1400 nM.

Q: What about the IC50 (Akt2) of the same compound?
A: The IC50 was 50 nM.

Q: What about the IC50 (p-Akt1 in LNCaP cells) of the same compound?
A: The IC50 was 1600 nM.

Q: What about the IC50 (p-Akt2 in WM115 cells) of the same compound?
A: Its IC50 is 380 nM.

Q: And the IC50 (p-Akt3 in WM115 cells)?
A: Its IC50 is 24 nM.

Q: What about the IC50 (Akt3) of the same compound?
A: The IC50 was 4 nM.

Q: Which results are given for COC(=O)N(C)[C@H]1CC[C@H](CC(=O)Nc2cc(-c3ccccc3)c(-c3ccc(C4(N)CC(F)(F)C4)cc3)nn2)CC1 [Example 60, Methyl (trans-4-(2-((6-(4-(1-amino-3,3-difluorocyclobutyl)phenyl)-5-phenylpyridazin-3-yl)amino)-2-oxoethyl)cyclohexyl)(methyl)carbamate]?
A: IC50 (Akt1): > 30000 nM; IC50 (Akt2): 710 nM; IC50 (p-Akt1 in LNCaP cells): > 30000 nM; IC50 (p-Akt2 in WM115 cells): 8800 nM; IC50 (p-Akt3 in WM115 cells): 290 nM; IC50 (Akt3): 50 nM
